What all share (format): in vivo
Experiment [1] deals with Cyperus serotinus. Kind of experiment: Pre-emergence herbicidal action against harmful plants. Particulars: Comparative table 5, pre-emergence, 320 g a.i./ha, visual scoring 3-4 weeks after treatment. From the text: (§1) Seeds or rhizome pieces of mono- and dicotyledonous harmful plants are placed in sandy loam in pots of a diameter of 9 to 13 cm and covered with soil. The herbicides, formulated as emulsifiable concentrates or dusts, are applied to the surface of the covering soil in the form of aqueous dispersions or suspensions or emulsions at an application rate of 300 to 800 l of water/ha (converted), at various dosages. For further cultivation of the plants, the pots are then kept in a greenhouse under optimum conditions. The visual scoring of the damage to the harmful plants is carried out 3-4 weeks after the treatment. As shown by the results of these comparative tables, the selected compounds according to the invention have better herbicidal activity against a broad spectrum of economically important mono- and dicotyledonous harmful plants than the compounds disclosed in the prior art.

A further experiment relates to Lolium multiflorum. The description is as above. The conditions noted are these: Comparative table 5, pre-emergence, 320 g a.i./ha, visual scoring 3-4 weeks after treatment.
Source text: as §1

In the next experiment the test system is Stellaria media. The description is as above. Particulars: Comparative table 5, pre-emergence, 320 g a.i./ha, visual scoring 3-4 weeks after treatment.
Source text: as §1

The next experiment deals with Abutilon theophrasti. Kind of experiment: Post-emergence herbicidal action against harmful plants. Particulars: 20 g a.i./ha, scored after 3 to 4 weeks. The protocol: (§2) Seeds of mono- and dicotyledonous harmful plants are placed in sandy loam in cardboard pots, covered with soil and grown in the greenhouse under good growth conditions. Two to three weeks after sowing, the test plants are treated at the three-leaf stage. The compounds according to the invention, which are formulated as wettable powders or as emulsion concentrates, are sprayed at an application rate of 600 to 800 l of water/ha (converted) in a dosage stated in tables 1 to 5 onto the surface of the green plant parts. After the test plants have been left to stand in the greenhouse for 3 to 4 weeks under optimum growth conditions, the action of the compounds according to the invention is scored in comparison to compounds disclosed in the prior art. As shown by the results of these comparison tables, the selected compounds according to the invention have better herbicidal activity against a broad spectrum of economically important mono- and dicotyledonous harmful plants than the compounds disclosed in the prior art.

Experiment [2] relates to Setaria viridis. Described as above. The conditions noted are these: 504 h, scored after 3 to 4 weeks, read-out: Activity against harmful plants SETVI; for pest or weed control at 20 g/ha: 20 g a.i./ha; for pest or weed control at 80 g/ha: Comparative table 3, post-emergence, 80 g a.i./ha. The protocol:
as §2

In experiment [3] the test system is Amaranthus retroflexus. Kind of experiment: Pre-emergence herbicidal action against harmful plants. The conditions noted are these: visual scoring 3-4 weeks after treatment.
Source text: as §1

Experiment [4] deals with Setaria viridis. Described as above. Particulars: Comparative table 7, pre-emergence, 20 g a.i./ha, visual scoring 3-4 weeks after treatment.
Source text: as §1

Experiment [5] deals with Veronica persica. The experiment is described as above. The conditions noted are these: Comparative table 7, pre-emergence, 20 g a.i./ha, visual scoring 3-4 weeks after treatment.
Source text: as §1

In experiment [6] the test system is Viola tricolor. Described as above. The conditions noted are these: Comparative table 7, pre-emergence, 20 g a.i./ha, visual scoring 3-4 weeks after treatment.
Source text: as §1

The next experiment deals with ALOMY. Described as above. Particulars: Comparative table 6, pre-emergence, 320 g a.i./ha, visual scoring 3-4 weeks after treatment.
Source text: as §1

The next experiment concerns Matricaria inodora. The experiment is described as above. Particulars: Comparative table 6, pre-emergence, 320 g a.i./ha, visual scoring 3-4 weeks after treatment.
Source text: as §1

The subject of experiment [7] is Amaranthus retroflexus. Kind of experiment: Post-emergence herbicidal action against harmful plants. The conditions noted are these: 80 g a.i./ha, scored after 3 to 4 weeks. The procedure: as §2
The test system of experiment [8] is Galium aparine. The experiment is described as above. Particulars: Comparative table 2, post-emergence, 80 g a.i./ha, scored after 3 to 4 weeks. The procedure: as §2
Experiment [9] has as its system Xanthium strumarium. Described as above. Particulars: Comparative table 2, post-emergence, 80 g a.i./ha, scored after 3 to 4 weeks. The protocol: as §2
Experiment [10] deals with Cyperus serotinus. The experiment is described as above. The conditions noted are these: Comparative table 3, post-emergence, 80 g a.i./ha, scored after 3 to 4 weeks. The protocol: as §2
Experiment [11] relates to Galium aparine. Kind of experiment: Pre-emergence herbicidal action against harmful plants. The conditions noted are these: Comparative table 9, pre-emergence, 320 g a.i./ha, visual scoring 3-4 weeks after treatment.
Source text: as §1

In experiment [12] the test system is Xanthium strumarium. Described as above. The conditions noted are these: Comparative table 9, pre-emergence, 320 g a.i./ha, visual scoring 3-4 weeks after treatment.
Source text: as §1

Experiment [13] deals with Veronica persica. Kind of experiment: Post-emergence herbicidal action against harmful plants. The conditions noted are these: 20 g a.i./ha, scored after 3 to 4 weeks. The protocol:
as §2

The subject of experiment [14] is Viola tricolor. Described as above. Particulars: Comparative table 1, post-emergence, 20 g a.i./ha, scored after 3 to 4 weeks. The protocol:
as §2

[15] abbreviates: Comparative table 8, post-emergence.
[16] abbreviates: Comparative table 7, pre-emergence, 20 g a.i./ha.
[17] abbreviates: Comparative table 6, pre-emergence, 320 g a.i./ha.
The mark [18] stands for this setting: Comparative table 2, post-emergence.
Where [19] appears, read: Comparative table 3, post-emergence.
Setting [20] is: Comparative table 1, post-emergence.
[21] abbreviates: Comparative table 4, post-emergence.

Where two headings read alike, the source gives them in different places.

`CCOCCNc1c(S(C)(=O)=O)ccc(C(=O)c2c(C)nn(C)c2O)c1Cl`: in the experiment with Cyperus serotinus [1], the “Activity against harmful plants CYPES” value was determined as 60%. Further, the “Activity against harmful plants LOLMU” value with Lolium multiflorum is 0%. Besides, in the experiment on Stellaria media, the “Activity against harmful plants STEME” value was 0%.

Consider `COCCCNc1c(S(C)(=O)=O)ccc(C(=O)c2c(C)nn(C)c2O)c1Cl`, for which, in the experiment on Abutilon theophrasti (setting [15]), the “Activity against harmful plants ABUTH” value came to 70%. Moreover, in the experiment on Setaria viridis [2] (setting [15]), the pest or weed control at 20 g/ha worked out at 70%.

Consider `Cc1nn(C)c(O)c1C(=O)c1ccc(S(C)(=O)=O)c(N(C)CC2CC2)c1C`, for which the “Activity against harmful plants AMARE” value in the experiment on Amaranthus retroflexus [3] (setting [16]) is 100%. Further, the “Activity against harmful plants SETVI” value in the experiment with Setaria viridis [4] is 90%. In the experiment with Veronica persica [5], the “Activity against harmful plants VERPE” value was 90%. In the experiment on Viola tricolor [6], the “Activity against harmful plants VIOTR” value came out at 100%.

Take `Cc1nn(C)c(O)c1C(=O)c1ccc(S(C)(=O)=O)c(NCC2CC2)c1Cl`: the “Activity against harmful plants ALOMY” value in the experiment with ALOMY was 20%. For the same molecule, in the experiment on Amaranthus retroflexus [3] (setting [17]), the “Activity against harmful plants AMARE” value was found to be 90%. In addition, the “Activity against harmful plants MATIN” value in the experiment with Matricaria inodora worked out at 0%.

Turning to `CNc1c(S(C)(=O)=O)ccc(C(=O)c2c(C)nn(C)c2O)c1Cl`, in the experiment on Amaranthus retroflexus [7] (setting [18]), the “Activity against harmful plants AMARE” value is recorded as 70%. For the same molecule, the “Activity against harmful plants GALAP” value with Galium aparine [8] is recorded as 60%. The “Activity against harmful plants XANST” value in the experiment on Xanthium strumarium [9] was found to be 50%.

On to `CCCNc1c(S(C)(=O)=O)ccc(C(=O)c2c(C)nn(C)c2O)c1Cl`, for which the “Activity against harmful plants AMARE” value with Amaranthus retroflexus [7] (setting [19]) is 70%. The “Activity against harmful plants CYPES” value in the experiment on Cyperus serotinus [10] was determined as 50%. In the experiment with Setaria viridis [2], the pest or weed control at 80 g/ha amounted to 70%.

For `Cc1nn(C)c(O)c1C(=O)c1ccc(S(C)(=O)=O)c(N(C)CC2CC2)c1Cl`, the “Activity against harmful plants AMARE” value in the experiment on Amaranthus retroflexus [3] (setting [16]) worked out at 20%. The “Activity against harmful plants SETVI” value in the experiment with Setaria viridis [4] worked out at 0%. Further, the “Activity against harmful plants VERPE” value in the experiment on Veronica persica [5] came to 0%. For the same molecule, in the experiment with Viola tricolor [6], the “Activity against harmful plants VIOTR” value worked out at 0%.

With `CCCNc1c(S(C)(=O)=O)ccc(C(=O)c2c(C)nn(C)c2O)c1C`, in the experiment on Amaranthus retroflexus [7] (setting [19]), the “Activity against harmful plants AMARE” value is 100%. The “Activity against harmful plants CYPES” value in the experiment with Cyperus serotinus [10] amounted to 80%. Further, the pest or weed control at 80 g/ha with Setaria viridis [2] worked out at 90%.

As for `COCCCNc1c(S(C)(=O)=O)ccc(C(=O)c2c(C)nn(C)c2O)c1C`, the “Activity against harmful plants ABUTH” value in the experiment on Abutilon theophrasti (setting [15]) is 90%. Further, the pest or weed control at 20 g/ha in the experiment on Setaria viridis [2] (setting [15]) stood at 100%.

Turning to `Cc1nn(C)c(O)c1C(=O)c1ccc(S(C)(=O)=O)c(N(C)C)c1C`, the “Activity against harmful plants GALAP” value in the experiment with Galium aparine [11] came out at 90%. Also, in the experiment with Xanthium strumarium [12], the “Activity against harmful plants XANST” value was 100%.

With `CCOCCNc1c(S(C)(=O)=O)ccc(C(=O)c2c(C)nn(C)c2O)c1C`, the “Activity against harmful plants CYPES” value with Cyperus serotinus [1] was determined as 80%. In the experiment with Lolium multiflorum, the “Activity against harmful plants LOLMU” value came to 50%. The “Activity against harmful plants STEME” value in the experiment with Stellaria media is reported as 90%.

Regarding `Cc1nn(C)c(O)c1C(=O)c1ccc(S(C)(=O)=O)c(N)c1Cl`, in the experiment with Setaria viridis [2] (setting [20]), the pest or weed control at 20 g/ha came out at 40%. Further, the “Activity against harmful plants VERPE” value in the experiment with Veronica persica [13] (setting [20]) is recorded as 70%. Further, in the experiment on Viola tricolor [14], the “Activity against harmful plants VIOTR” value is on record as 70%.

As to `Cc1nn(C)c(O)c1C(=O)c1ccc(S(C)(=O)=O)c(N)c1C`, the pest or weed control at 20 g/ha in the experiment on Setaria viridis [2] (setting [20]) is 80%. Moreover, in the experiment on Veronica persica [13] (setting [20]), the “Activity against harmful plants VERPE” value is 90%. Also, the “Activity against harmful plants VIOTR” value in the experiment on Viola tricolor [14] was 80%.

With `Cc1nn(C)c(O)c1C(=O)c1ccc(S(C)(=O)=O)c(NCC2CC2)c1C`, the “Activity against harmful plants ALOMY” value in the experiment on ALOMY stood at 60%. In addition, in the experiment on Amaranthus retroflexus [3] (setting [17]), the “Activity against harmful plants AMARE” value was determined as 100%. Also, in the experiment with Matricaria inodora, the “Activity against harmful plants MATIN” value turned out to be 80%.

Consider `CCn1ncc(C(=O)c2ccc(S(C)(=O)=O)c(N(C)C)c2C)c1O`, for which the “Activity against harmful plants GALAP” value in the experiment on Galium aparine [11] is listed as 80%. Also, in the experiment on Xanthium strumarium [12], the “Activity against harmful plants XANST” value is on record as 10%.

As for `Cc1nn(C)c(O)c1C(=O)c1ccc(S(C)(=O)=O)c(NC(C)C)c1C`, the “Activity against harmful plants ABUTH” value in the experiment with Abutilon theophrasti (setting [21]) worked out at 90%. In the experiment on Setaria viridis [2] (setting [21]), the pest or weed control at 20 g/ha came to 90%. Moreover, the “Activity against harmful plants VERPE” value with Veronica persica [13] (setting [21]) worked out at 70%.

Consider `CNc1c(S(C)(=O)=O)ccc(C(=O)c2c(C)nn(C)c2O)c1C`, for which the “Activity against harmful plants AMARE” value in the experiment on Amaranthus retroflexus [7] (setting [18]) amounted to 90%. Moreover, in the experiment with Galium aparine [8], the “Activity against harmful plants GALAP” value amounted to 80%. Besides, in the experiment with Xanthium strumarium [9], the “Activity against harmful plants XANST” value stood at 70%.

Consider `Cc1nn(C)c(O)c1C(=O)c1ccc(S(C)(=O)=O)c(NC(C)C)c1Cl`, for which the “Activity against harmful plants ABUTH” value in the experiment on Abutilon theophrasti (setting [21]) was determined as 80%. The pest or weed control at 20 g/ha with Setaria viridis [2] (setting [21]) is 80%. Also, the “Activity against harmful plants VERPE” value in the experiment with Veronica persica [13] (setting [21]) is on record as 40%.

(Values after patent US8178695B2, “4-(3-aminobenzoyl)-1,3-dimethylpyrazoles and their use as herbicides” (Bayer Cropscience AG, priority 2007, dated 2012).)
